In ChEMBL document CHEMBL4342507, “Targeting YAP Degradation by a Novel 1,2,4-Oxadiazole Derivative via Restoration of the Function of the Hippo Pathway” (ACS Med Chem Lett, 2020):
Calls of active or inactive are those of the source. The calls are words filed in the database; no cut-off is given here.

Assays:
[1] = biological target: Epidermal growth factor receptor (Homo sapiens) (UniProt P00533); assay: Induction of EGFR degradation in human MDA-MB-231 cells assessed as suppression of EGFR expression at 0.05 to 0.6 uM by Western blot analysis; type: cell-based
Epidermal growth factor receptor (Homo sapiens), sequence (P00533 whole entry): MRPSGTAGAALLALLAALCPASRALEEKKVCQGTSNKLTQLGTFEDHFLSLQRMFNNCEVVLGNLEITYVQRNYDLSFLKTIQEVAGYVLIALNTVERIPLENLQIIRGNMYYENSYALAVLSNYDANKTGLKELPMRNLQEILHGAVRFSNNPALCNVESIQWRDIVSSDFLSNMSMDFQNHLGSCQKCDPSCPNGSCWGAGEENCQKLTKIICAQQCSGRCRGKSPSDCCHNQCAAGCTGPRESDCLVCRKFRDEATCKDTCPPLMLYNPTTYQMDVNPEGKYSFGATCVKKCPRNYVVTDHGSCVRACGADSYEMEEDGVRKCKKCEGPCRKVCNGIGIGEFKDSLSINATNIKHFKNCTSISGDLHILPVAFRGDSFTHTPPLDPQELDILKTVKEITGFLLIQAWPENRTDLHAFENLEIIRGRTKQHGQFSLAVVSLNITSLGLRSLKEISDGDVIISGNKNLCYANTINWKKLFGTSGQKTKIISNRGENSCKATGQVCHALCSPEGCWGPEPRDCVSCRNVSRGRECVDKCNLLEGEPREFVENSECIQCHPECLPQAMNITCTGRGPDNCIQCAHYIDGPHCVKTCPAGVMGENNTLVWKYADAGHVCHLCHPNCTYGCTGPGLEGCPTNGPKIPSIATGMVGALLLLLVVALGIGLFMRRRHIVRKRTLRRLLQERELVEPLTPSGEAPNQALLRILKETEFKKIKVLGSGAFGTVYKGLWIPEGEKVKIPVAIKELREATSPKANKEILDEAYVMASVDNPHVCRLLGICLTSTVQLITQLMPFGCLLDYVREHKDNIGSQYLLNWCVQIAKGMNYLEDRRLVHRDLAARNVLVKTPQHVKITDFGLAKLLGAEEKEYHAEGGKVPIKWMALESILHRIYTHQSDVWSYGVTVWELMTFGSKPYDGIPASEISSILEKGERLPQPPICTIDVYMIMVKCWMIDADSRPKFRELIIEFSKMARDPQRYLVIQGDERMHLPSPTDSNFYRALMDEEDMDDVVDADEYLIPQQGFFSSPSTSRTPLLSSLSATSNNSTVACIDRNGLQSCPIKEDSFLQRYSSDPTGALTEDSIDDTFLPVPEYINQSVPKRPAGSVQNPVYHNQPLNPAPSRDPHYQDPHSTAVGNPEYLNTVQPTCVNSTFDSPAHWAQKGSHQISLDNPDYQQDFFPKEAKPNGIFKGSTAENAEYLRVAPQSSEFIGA

[2] = biological target: Hepatocyte growth factor receptor (Homo sapiens) (UniProt P08581); assay: Induction of c-MET degradation in human MDA-MB-231 cells assessed as suppression of c-MET expression at 0.05 to 0.6 uM by Western blot analysis; type: cell-based
Hepatocyte growth factor receptor (Homo sapiens), sequence (P08581 whole entry): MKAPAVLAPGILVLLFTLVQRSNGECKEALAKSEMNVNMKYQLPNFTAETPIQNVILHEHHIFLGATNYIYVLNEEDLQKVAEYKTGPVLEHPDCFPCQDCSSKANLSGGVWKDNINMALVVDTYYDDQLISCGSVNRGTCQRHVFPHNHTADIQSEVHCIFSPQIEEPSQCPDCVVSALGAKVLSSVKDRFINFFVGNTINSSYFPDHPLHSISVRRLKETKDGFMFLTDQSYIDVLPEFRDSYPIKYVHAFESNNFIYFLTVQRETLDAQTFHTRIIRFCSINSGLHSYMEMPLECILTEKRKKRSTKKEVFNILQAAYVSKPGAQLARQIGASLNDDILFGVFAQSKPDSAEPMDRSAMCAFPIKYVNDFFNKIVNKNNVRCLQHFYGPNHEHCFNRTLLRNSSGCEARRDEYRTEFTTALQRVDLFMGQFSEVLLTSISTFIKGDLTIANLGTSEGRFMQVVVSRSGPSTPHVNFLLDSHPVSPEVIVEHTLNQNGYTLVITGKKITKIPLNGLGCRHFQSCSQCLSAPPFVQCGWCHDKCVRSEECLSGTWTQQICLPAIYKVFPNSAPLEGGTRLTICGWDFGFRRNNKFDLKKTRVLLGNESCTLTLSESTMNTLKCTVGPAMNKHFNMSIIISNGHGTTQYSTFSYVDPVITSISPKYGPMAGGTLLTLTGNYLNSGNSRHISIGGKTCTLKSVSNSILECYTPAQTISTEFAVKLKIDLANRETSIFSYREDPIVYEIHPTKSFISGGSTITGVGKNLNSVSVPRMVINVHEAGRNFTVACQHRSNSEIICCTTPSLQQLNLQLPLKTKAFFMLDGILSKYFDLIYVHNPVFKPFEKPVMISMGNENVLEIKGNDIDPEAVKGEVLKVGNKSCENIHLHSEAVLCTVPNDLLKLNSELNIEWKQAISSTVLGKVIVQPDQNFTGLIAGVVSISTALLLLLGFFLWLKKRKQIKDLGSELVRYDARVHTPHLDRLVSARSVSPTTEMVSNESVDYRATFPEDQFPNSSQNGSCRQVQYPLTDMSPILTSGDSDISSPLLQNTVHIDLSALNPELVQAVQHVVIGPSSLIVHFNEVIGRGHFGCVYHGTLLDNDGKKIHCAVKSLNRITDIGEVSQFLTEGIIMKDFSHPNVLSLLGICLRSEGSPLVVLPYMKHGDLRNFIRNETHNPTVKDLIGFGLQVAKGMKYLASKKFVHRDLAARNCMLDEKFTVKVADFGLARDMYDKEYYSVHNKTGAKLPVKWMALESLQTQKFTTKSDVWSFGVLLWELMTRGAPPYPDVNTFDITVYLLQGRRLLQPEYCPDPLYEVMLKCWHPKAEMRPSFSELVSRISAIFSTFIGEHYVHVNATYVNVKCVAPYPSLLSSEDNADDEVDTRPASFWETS

Activity [1]: Active | Activity [2]: Active
Structure (SMILES): O=C(Nc1cccc(-c2nc(-c3ccc(NC(=O)c4cccnc4)cc3Cl)no2)c1)Nc1ccc(NC(=O)C2CC2)c(C(F)(F)F)c1
